Reference: patent publication US11225470B2, “Tetrazolinone compounds and its use as pest control agents” (SUMITOMO CHEMICAL COMPANY, LIMITED, priority 2016, dated 2022)

Legend:
Format in all cases: in vivo
[1] = test system: soybean frogeye leaf spot disease fungi (Cercospora sojina); assay: soybean frogeye leaf spot test, spraying after inoculation; details: 200 ppm foliar spray 5 days after inoculation; soybean cv TACHINAGAHA
[2] = test system: kidney bean sclerotinia rot fungi (Sclerotinia sclerotiorum); assay: kidney bean sclerotinia rot test; details: 200 ppm foliar spray; kidney bean cv NAGAUZURA SAITO; observed after four days
Method: Each of plastic pots was filled with soil and thereto Kidney bean (cv; NAGAUZURA SAITO) seeds were sown and the kidney beans were grown in a greenhouse for 8 days. Thereafter, any of the present compounds 1-1, 1-2, 1-3, 1-5, 1-10, 3-16, 3-22, 4-2, 4-3, 4-4, 4-8, or 6-2, each of which was made to a formulation according to the similar method to that of Formulation Example 6, was mixed with water so as to be a prescribed concentration (500 ppm). The adjusted solutions were sprayed to foliar parts so as to adhere adequately on the leaves of the above-mentioned kidney bean. After spraying the mixtures, the kidney beans were air-dried and a PDA medium containing hyphae of kidney bean sclerotinia rot fungi (Sclerotinia sclerotiorum) was placed on the leaves of the kidney bean. After the inoculation, all kidney beans were placed under a high humidity during only night and after four days, a lesion area was observed.
Each of plastic pots was filled with soil and thereto Kidney bean (cv; NAGAUZURA SAITO) seeds were sown and the kidney beans were grown in a greenhouse for 8 days. […] The adjusted solutions were sprayed to foliar parts so as to adhere adequately on the leaves of the above-mentioned kidney bean. […]

[3] = test system: wheat leaf blotch fungi (Septoria tritici); assay: wheat leaf blotch test on 45-day wheat, plants placed outside for 4 days before inoculation; details: 300 ppm, 200 L/ha, Formulation Example 4, wheat cv APOGEE grown 45 days
Description: Each of plastic pots was filled with soil and wheat (cultivar: APOGEE) was sown, and the […] grown in a greenhouse for 45 days. Then, the comparative test compound cf3, the present compound E-15, or E-16, each of which was made to a formulation according to the similar method to that of Formulation Example 4, was mixed with water so as to be 300 ppm. The mixtures were sprayed to foliar parts of the wheat by the volume of 200 L/ha. After spraying the mixtures, the […], and placed outside for 4 days. Thereafter, an aqueous suspension of the spores of wheat leaf blotch fungi (Septoria tritici) was spraying-inoculated.

[4] = test system: soybean frogeye leaf spot disease fungi (Cercospora sojina); assay: soybean frogeye leaf spot test, spraying before inoculation; details: 3.1 ppm foliar spray, inoculation after 2 days; soybean cv Tachinagaha
[5] = test system: kidney bean sclerotinia rot fungi (Sclerotinia sclerotiorum); assay: kidney bean sclerotinia rot test, plants placed outside for 6 days before inoculation; details: 200 ppm foliar spray, observed after six days
Description: Each of plastic pots was filled with soil and kidney bean (cultivar: NAGAUZURA SAITO) was sown and grown in a greenhouse for 8 days. Then, the comparative test compound cf5, the present compound E-1, E-3, E-11, or E-16, each of which was made to a formulation according to the similar method to that of Formulation Example 6, was mixed with water so as to be 200 ppm. The mixtures were sprayed to foliar parts so as to adhere adequately on the leaves of the above-mentioned kidney bean. After spraying the mixtures, the kidney beans were air-dried, and placed outside for 6 days. Thereafter, a PDA medium containing hyphae of kidney bean sclerotinia rot fungi (Sclerotinia sclerotiorum) was placed on the leaves of the kidney bean. After the inoculation, all kidney beans were placed indoors under a high humidity during only night and after six days, a lesion area was observed.

CCC(=NN=C(C)c1ccc2ccccc2c1)OCc1c(C)cccc1-n1nnn(C)c1=O [cf1]
lesion area compared to the lesion area in an untreated soybean [1]: ≥ 50%
lesion area compared to the lesion area in an untreated kidney bean [2]: ≥ 50%

CCC(=NN=C(C)c1ccc(F)cc1)OCc1c(C)cccc1-n1nnn(C)c1=O [cf3]
lesion area compared to the lesion area in an untreated wheat [3]: ≥ 80%

CCC(=NN=C(C)c1ccccc1)OCc1c(C)cccc1-n1nnn(C)c1=O [cf5]
area of lesion compared to that on an untreated bean [4]: more than 70%
lesion area compared to the lesion area in an untreated kidney bean [5]: ≥ 70%
